Laboratory results from ChEMBL document CHEMBL1201862, “PubChem BioAssay data set” (2004).
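1) Cells in 96-well plates. 2) Compound, 48 h, 5 concentrations. 3) Linear interpolation between surrounding doses. 4) Unreached endpoint = highest concentration. The concentration for 50% growth inhibition is given as GI50.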 Activity calls are given as the source filed them. No stated cut-off is given here; in the data, active = GI50 up to about 1.1 µM and inactive = higher.

Legend:
Assay in all cases: NCI-60 cell line screen, 48 h
KM-20L2 = test system: KM-20L2
SR = test system: SR
OVCAR-4 = test system: OVCAR-4
UACC-257 = test system: UACC-257
UACC-62 = test system: UACC-62
HCC 2998 = test system: HCC 2998
A498 = test system: A498
HCT-116 = test system: HCT-116
SK-MEL-28 = test system: SK-MEL-28
IGROV-1 = test system: IGROV-1
LOX IMVI = test system: LOX IMVI
SW-620 = test system: SW-620
A549 = test system: A549
SK-MEL-5 = test system: SK-MEL-5
HT-29 = test system: HT-29
HOP-18 = test system: HOP-18
HCT-15 = test system: HCT-15
M19-MEL = test system: M19-MEL
NCI-H226 = test system: NCI-H226
NCI-H460 = test system: NCI-H460
MOLT-4 = test system: MOLT-4
RXF 631 = test system: RXF 631
ACHN = test system: ACHN
NCI-H23 = test system: NCI-H23
LXFL 529 = test system: LXFL 529
Malme-3M = test system: Malme-3M
RXF 393 = test system: RXF 393
SF-268 = test system: SF-268
HL-60 = test system: HL-60
SNB-75 = test system: SNB-75
HOP-62 = test system: HOP-62
SF-295 = test system: SF-295
DMS-273 = test system: DMS-273
CCRF-CEM = test system: CCRF-CEM
SK-OV-3 = test system: SK-OV-3
SK-MEL-2 = test system: SK-MEL-2
COLO 205 = test system: COLO 205
DMS-114 = test system: DMS-114
OVCAR-5 = test system: OVCAR-5
UO-31 = test system: UO-31
SF-539 = test system: SF-539
SNB-78 = test system: SNB-78
RPMI-8226 = test system: RPMI-8226
KM12 = test system: KM12
U-251 = test system: U-251
HOP-92 = test system: HOP-92
M14 = test system: M14
EKVX = test system: EKVX
DLD-1 = test system: DLD-1
K562 = test system: K562
OVCAR-8 = test system: OVCAR-8
OVCAR-3 = test system: OVCAR-3
SN12C = test system: SN12C

With `COc1ccc(Oc2ccccc2N)cc1` the GI50 (KM-20L2) was 27.6 µM (inactive), the GI50 (SR) was 18.3 µM (inactive) and the GI50 (OVCAR-4) was 57.3 µM (inactive). For the same compound, the GI50 (UACC-257) was 57.4 µM (inactive), the GI50 (UACC-62) was 19.3 µM (inactive) and the GI50 (HCC 2998) was 20.8 µM (inactive). The GI50 (A498) was > 100 µM (inactive), the GI50 (HCT-116) was 17.2 µM (inactive) and the GI50 (SK-MEL-28) was 28.2 µM (inactive). For the same compound, the GI50 (IGROV-1) was 36.6 µM (inactive), the GI50 (LOX IMVI) was 81.1 µM (inactive) and the GI50 (SW-620) was 59 µM (inactive). For the same compound, the GI50 (A549) was 38.1 µM (inactive), the GI50 (SK-MEL-5) was 13.2 µM (inactive) and the GI50 (HT-29) was 39.9 µM (inactive). For the same compound, the GI50 (HOP-18) was > 100 µM (inactive), the GI50 (HCT-15) was 9.51 µM and the GI50 (M19-MEL) was 50.2 µM (inactive). For the same compound, the GI50 (NCI-H226) was 41.9 µM (inactive), the GI50 (NCI-H460) was 30.6 µM (inactive) and the GI50 (MOLT-4) was 18 µM (inactive). For the same compound, the GI50 (RXF 631) was > 100 µM (inactive), the GI50 (ACHN) was 24.5 µM (inactive) and the GI50 (NCI-H23) was 43 µM (inactive). The GI50 (LXFL 529) was 10.4 µM (inactive), the GI50 (Malme-3M) was > 100 µM (inactive) and the GI50 (RXF 393) was 19.8 µM (inactive). For the same compound, the GI50 (SF-268) was 42.1 µM (inactive), the GI50 (HL-60) was 21 µM (inactive) and the GI50 (SNB-75) was 23.7 µM (inactive). The GI50 (HOP-62) was 35.2 µM (inactive), the GI50 (SF-295) was 26.1 µM (inactive) and the GI50 (DMS-273) was 29.5 µM (inactive). For the same compound, the GI50 (CCRF-CEM) was 10.7 µM (inactive), the GI50 (SK-OV-3) was > 100 µM (inactive) and the GI50 (SK-MEL-2) was 57 µM (inactive). The GI50 (COLO 205) was 16.6 µM (inactive), the GI50 (DMS-114) was 37.2 µM (inactive) and the GI50 (OVCAR-5) was 48.6 µM (inactive). The GI50 (UO-31) was 26.5 µM (inactive), the GI50 (SF-539) was 20.2 µM (inactive) and the GI50 (SNB-78) was > 100 µM (inactive). For the same compound, the GI50 (RPMI-8226) was 31.8 µM (inactive), the GI50 (KM12) was 20.9 µM (inactive) and the GI50 (U-251) was 12.4 µM (inactive). The GI50 (HOP-92) was 96.2 µM (inactive), the GI50 (M14) was 58.7 µM (inactive) and the GI50 (EKVX) was 93.8 µM (inactive). For the same compound, the GI50 (DLD-1) was 30 µM (inactive), the GI50 (K562) was 29.5 µM (inactive) and the GI50 (OVCAR-8) was 56.2 µM (inactive). The GI50 (OVCAR-3) was 26.4 µM (inactive) and the GI50 (SN12C) was 44.8 µM (inactive).
